# According to US10588902B2, “Camptothecin derivatives as anti-HIV agents and methods of identifying agents that disrupt Vif self-association” (OyaGen, Inc., priority 2013, dated 2020):
# Columns and labels:
# [1] = PubChem BioAssays; cited from earlier work
# [2] = target: T1, Topo1 (Homo sapiens, UniProt P11387); assay: in vitro Topo1 drug screening assay (Topogen); format: biochemical; details: increasing amounts, compared to the 0 chem control
# T1 construct: purchased Topogen
# T1 sequence (P11387 1-765): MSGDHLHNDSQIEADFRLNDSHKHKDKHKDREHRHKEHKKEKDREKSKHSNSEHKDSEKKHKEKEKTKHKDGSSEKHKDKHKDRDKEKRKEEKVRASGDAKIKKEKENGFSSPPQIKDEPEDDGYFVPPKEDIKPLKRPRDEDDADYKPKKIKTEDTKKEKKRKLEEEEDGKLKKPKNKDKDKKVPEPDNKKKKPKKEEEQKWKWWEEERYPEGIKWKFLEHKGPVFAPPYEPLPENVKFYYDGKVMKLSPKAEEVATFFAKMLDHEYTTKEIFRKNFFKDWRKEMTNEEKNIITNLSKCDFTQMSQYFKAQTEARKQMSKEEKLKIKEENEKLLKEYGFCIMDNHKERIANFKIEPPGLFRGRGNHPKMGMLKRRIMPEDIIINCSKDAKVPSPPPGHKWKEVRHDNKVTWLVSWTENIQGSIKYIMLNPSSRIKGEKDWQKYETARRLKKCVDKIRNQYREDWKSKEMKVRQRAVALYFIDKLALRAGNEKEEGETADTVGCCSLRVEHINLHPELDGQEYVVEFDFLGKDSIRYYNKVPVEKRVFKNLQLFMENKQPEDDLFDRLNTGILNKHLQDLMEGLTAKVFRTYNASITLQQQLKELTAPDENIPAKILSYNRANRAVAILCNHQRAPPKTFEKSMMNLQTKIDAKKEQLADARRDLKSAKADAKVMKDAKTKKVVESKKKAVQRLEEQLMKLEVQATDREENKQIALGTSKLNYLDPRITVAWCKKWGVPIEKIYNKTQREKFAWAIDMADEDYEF
# [3] = test system: A3.01 cells; assay: cell cycle test (propidium iodide, flow cytometry); format: cell-based; details: for G2 block: CPT 0.2 μM, OYA002-16 0.2 and 0.4 μM
# Description: FIGS. 9A and 9B illustrate results of an in vitro drug screening assay for toxicity of the OYA002-16 small molecule of the present invention. […] After 24 hours of compound treatment cells were fixed in methanol and treated with propidium iodide (PI) to stain the cellular DNA in A3.01 cells (a CEM derived T-cell line). Flow cytometry of the cells can detect if the cells are in the G1 S or G2 phase of mitosis based on amount of PI staining in each cell.
# [4] = target: T2, Vif:Vif complex (Human immunodeficiency virus type 1 group M subtype B, UniProt P12504); format: cell-based, HIV; details: change in RFU over the quenched control
# T2 construct: expressed in transfected cells; host or cells: HEK 293T cells, transient co-transfection of two plasmids
# Description: EGFP-V5-Vif (the fluorescence donor) and Vif-HA-REACh2 (the acceptor and non-fluorescent YFP variant that quenches EGFP fluorescence) will be co-expressed in HEK 293T cells. Compounds that dissociate Vif multimers will induce EGFP fluorescence making this a positive screen for small molecules that disrupt Vif self-association.
# EGFP is a FRET donor and REACh2 (Resonance Energy Accepting Chromoprotein 2) is a non-fluorescent FRET acceptor (54). The non-fluorescent REACh2 is able to quench EGFP signal in a distance-dependent manner when they are linked to interacting domains. However, if there is no interaction, EGFP and REACh2 are not proximal and quenching will not occur. […]
# EGFP-V5-Vif alone has a strong baseline fluorescence. […]
# Experimentals relating to adapting the quenched FRET assay to 96-well and 384-well format are set forth below: • Description of reagents and readouts: We are currently capable of screening small libraries in 96-well format, and have optimized transfections for 384-well format. […] REACh2 is a non-fluorescent YFP variant that quenches EGFP through FRET, so in the default state Vif dimerizes and the EGFP signal is quenched, a compound that affects the interaction will cause an increase in fluorescence due to lack of FRET from interacting proteins (aka “releasing of the quench”). Our read out is fluorescence at GFP's excitation and emission in a PE Victor 3 plate reader. […]
# [5] = test system: pseudotyped HIV; assay: single round infectivity assay with pseudotyped HIV (TZM-bl luciferase reporter cells); format: cell-based; details: up to 33.3 μM, +/−Vif, +/−A3G
# Description: The antiviral activity of the hits in a single round infection with psuedotyped HIV was assessed. […] The wildtype HIV proviral vector codes for all HIV genes except nef (replaced with EGFP) and env. The delta Vif proviral vector is identical to wildtype except that it contains a stop codon early within the vif gene. […] Alternatively, in the absence of A3G, both wild type and Delta Vif viruses should have good infectivity.
# Transfecting the coat protein on a separate vector, allows for only a single round of infection. […] Viral load was normalized with a p24 ELISA Kit (Zeptometrix, Buffalo, N.Y.). Equal viral loads were then added in triplicate to TZM-bl reporter cells that express luciferase from the HIV-LTR promoter. 48 hours after infection luciferase levels were assessed with Steady-Glo reagent (Promega).
# The antiviral activity of the hits in a single-round infection with pseudotyped HIV were conducted using HEK293T producer cells +/−A3G and viruses that are +/−Vif. […]
# The infections utilized TZM-bl reporter cells that contain stably integrated luciferase that is driven by the HIV-LTR promoter, therefore luciferase is expressed upon successful HIV infection. […] Luminescence was measured as a quantitative metric for changes in infectivity with each compound as compared to controls, in which relative luminescence units (RLU) with no compounds are set to 100%.
# [6] = test system: A3G in viral particles; assay: A3G viral particle content (western blot of purified viral particles); format: cell-based; details: p24 normalized
# Excerpt: Perform ‘hit’ validation assays to confirm that small molecules selected by the primary and secondary screens have antiviral activity through their antagonism of Vif self-association. Antiviral activity will be validated for each compound with a luciferase viral infectivity reporter assay using infected TZM-bl cells in microtiter plate format. Each compound's ability to inhibit Vif-Vif interaction will be evaluated by co-immunoprecipitation.
# Another way to observe target specificity is by looking at the amount of A3G that is encapsulated into the viral particle. Since Vif blocks A3G from getting into the virus, more A3G should be present in viral particles isolated from cells dosed with a small molecule that disables Vif's function.
# [7] = test system: Vif-dependent A3G degradation; assay: in-cell secondary screen for Vif-dependent A3G degradation (A3G-mCherry 293T cells); format: cell-based; details: compared to +Vif (0%) and −Vif (100%) controls
# Description: FIG. 10 illustrates in-cell secondary screen fro Vif-dependent A3G degradation. […] 50 ng of Vif was transiently transfected into the cells in 384-well format with Turbofect. 4 hours after transfection the chemistries were added to cells. 24 hours after chemistries were added the mCherry signal was read on a Biotek Synergy 4 plate reader. The signal from plated cells not transfected with Vif was averaged and set at 100% (left image), and cells transfected with Vif and treated with DMSO only were averaged and set at 0% (right image). A chemistry that inhibits Vif's ability to chaperone A3G to the proteasomal degradation pathway would result in an increased mCherry signal compared to the DMSO only control, and any signal that is much higher than the no-Vif positive control is likely to be due to autofluorescence from the chemistry itself.
# The primary screen is represented as a change in RFU over the quenched control (ARFU). The secondary screen is compared to the +Vif (0%) and −Vif (100%) controls as described in FIG. 10.
# [8] = test system: 885 bp region of Pol; assay: Next Gen Sequencing for A3G signature mutation profiles; format: cell-based, HIV
# Excerpt: FIG. 14 is an illustration relating to a Next Gen Sequencing for A3G signature mutation profiles. Next Gen Sequencing with the Ion Torrent platform was used to sequence over 27 million bases for each sample. An 885 bp region of Pol was nested PCR amplified from genomic DNA isolated from TZM-bl cells infected in the previous Figures with −Vif virus+A3G (Positive Control) and +Vif virus+A3G & OYA002-16 (OYA002-16) and −Vif−A3G & OYA002-16 (Negative Control). There were 60 possible A3G “GG” signature mutation sites (A3G mediated single-stranded DNA mutations occur preferentially at the 3′ C of CC dinucleotide pairs) in the region sequenced. 34 sites were mutated at a rate of 15- to 339-fold over the background mutation rate for the Positive Control. 34 sites were mutated at a rate of 48 to 200-fold over background for the OYA002-16 sample. 21 sites overlapped between the two.
# [9] = test system: HepG2 cells; assay: high content imaging toxicity study, HepG2; format: cell-based
# Description: (§1) All cells are plated on 384-well collagen-coated, tissue culture-treated black walled clear bottomed polystyrene plates. Rat hepatocytes are seeded and dosed on the day they are harvested. Dosing takes place after attachment to the plate. They are treated with test compound at a 10 point dose range of concentrations and incubated for 24 and 48 hrs. HepG2 cells are seeded on the day prior to dosing and are treated with test compound at a 10 point dose range of concentrations and incubated for 24 and 72 hours. At the end of the incubation period, the cells are loaded with the relevant dye/antibody for each cell health marker. The plates are then scanned using an automated High Content Imager, Array Scan® VTI (Thermo Fisher Cellomics). The GSH, ROS, and 5 day toxicity assays were run at 1 time point, 18 hours post-dosing for GSH, 4 hr post-dose for ROS, and 5 days post-drug treatment for the 5 day assay.
# [10] = test system: rat hepatocytes and HepG2 cells; assay: high content imaging toxicity study, all tested cell types; format: cell-based
# Description: as §1
# [11] = solubility in Lac-Buffer; format: physicochemical; details: 37 °C, thermodynamic from solid
# Description: Solubility: 0.7 mg of OYA002-16 was suspended in 100.8 μl Lac-Buffer pH 4.5 or pH 7.4, vortexed for 10 min and warmed-up at 37° C. for 10 min, sonicated for 5 min and vortexed again for 10 min and centrifuged for 10 min. Supernatant was directly injected for concentration measurement. pH 7.4 Solubility: 65-72 μM by UV, 58-63 μM by CLND. pH 4.5 Solubility: 74-92 μM by UV, 74 μM by CLND.
# (§2) HPLC conditions used for the experiments were as follows: Column: Luna C-18, 150×4.6 from Phenomenex. Eluent: 42% aqueous CAN with 0.75 mM NH4OAc, pH=6.8. Detection: UV at 254 nm. Temperature: 35° C. Flow: 1.5 mL/min. Injection: 20 uL (solubility, freeze/thaw) or 200 uL (stability).
# [12] = stability test in PBS buffer; format: physicochemical; details: after 48 h in PBS
# Description: For each compound, a 0.250 uM stock solution in DMSO was prepared and sonicated until clear. Then, for each stability test, the cpd was formulated by adding 10 uL of the stock solution to 990 uL of PBS buffer, pH 7.0 and then a 200 uL aliquot was incubated 37° C. for 24 or 48 hrs.
# as §2
# [13] = stability test after 3 freeze/thaw cycles; format: physicochemical
# Description: For each compound, an aliquot of the stock solution (250 uM in DMSO) was frozen for 24 hrs at −80° C. and thawed for 1 hr, 3 times, then diluted 10 times in 40% CAN and analyzed by HPLC.
# as §2
# T2 sequence (P12504 whole entry, one chain of several): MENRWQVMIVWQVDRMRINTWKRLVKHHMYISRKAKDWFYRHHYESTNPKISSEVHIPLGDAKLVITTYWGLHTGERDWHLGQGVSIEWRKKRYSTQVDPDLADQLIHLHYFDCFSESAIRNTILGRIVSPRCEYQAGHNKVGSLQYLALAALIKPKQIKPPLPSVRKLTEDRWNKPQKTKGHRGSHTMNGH
structure (smiles),measurement,setting,value
CC[C@@]1(O)C(=O)OCc2c1cc1n(c2=O)Cc2cc3c(NC(=O)CN)cccc3nc2-1 [9-glycineamido-20(S)-CPT],active in Anti-Cancer Screens at NCI,[1],37 of 76
"CC[C@@]1(O)C(=O)OCc2c1cc1n(c2=O)Cc2cc3ccccc3nc2-1 [CPT, Camptothecin]",open nicked circles of plasmid DNA (Topo1 poisoning),[2],trap plasmid DNA into open nicked circles
same,G2 block,[3]; 24 hours,strong G2 block
"CC[C@@]1(O)C(=O)NCc2c1cc1n(c2=O)Cc2cc3ccccc3nc2-1 [OYA002-16, Lactam-CPT]",dose dependence in primary screen,[4],dose dependence
same,antiviral effect in single cycle HIV infectivity,[5],dose dependent antiviral effect only when Vif and A3G were expressed
same,A3G in viral particles,[6],increases A3G in viral particles
same,open nicked circles of plasmid DNA (Topo1 poisoning),[2],no increase in open nicked circles
same,cell cycle effects,[3],minimal cell cycle effects
same,cells in G2,"[3]; 0.2 and 0.4 μM, 24 hours, DMSO control 17%",22%
same,G2 block,[3]; 24 hours,minimal amount of G2 block
same,dose dependence in secondary screen (mCherry signal),[7],dose dependence
same,mutated sites overlapping with Positive Control,[8],21 sites
same,A3G signature mutation sites mutated,"[8]; +Vif virus +A3G, 60 possible sites",34 sites
same,Cytostasis,[9],largest effect
same,Stress and Apoptosis assays,[10],minimal effect
same,Viability tests,[10],minimal effect
same,solubility at 35 min,"[11]; pH 4.5, aqueous buffer, pH 4.5, by CLND",74 µM
same,solubility at 35 min,"[11]; pH 4.5, aqueous buffer, pH 4.5, by UV",74 to 92 µM
same,solubility at 35 min,"[11]; pH 7.4, aqueous buffer, pH 7.4, by CLND",58 to 63 µM
same,solubility at 35 min,"[11]; pH 7.4, aqueous buffer, pH 7.4, by UV",65 to 72 µM
same,stable,[12],100%
same,stable,[13],100%
CC[C@@]1(O)C(=O)OCc2c1cc1n(c2=O)Cc2cc3c(CN(C)C)c(O)ccc3nc2-1 [Topotecan],active in Anti-Cancer Screens at NCI,[1],active in most
CC[C@H]1C(=O)OCc2c1cc1n(c2=O)Cc2cc3ccccc3nc2-1 [deoxy-CPT],active in Anti-Cancer Screens at NCI,[1],4 of 68
